The values below are quoted from earlier work in patent US20140127295A1, “COMPOSITIONS, PROCESS OF PREPARATION OF SAID COMPOSITIONS AND METHOD OF TREATING INFLAMMATORY DISEASES” (priority 2011, published 2014).

For data set [1] the following is noted: in vivo.
The conditions of data set [2]: in mice.

In general, Tmax refers to the time from dosing to the highest level. With `CCC(C)(C)C(=O)O[C@H]1C[C@@H](C)C=C2C=C[C@H](C)[C@H](CC[C@@H]3C[C@@H](O)CC(=O)O3)[C@H]21` [CW302, (1S,3R,7S,8S,8aR)-8-{2-[(4R)-4-hydroxy-6-oxooxan-2-yl]ethyl}-3,7-dimethyl-1,2,3,7,8,8a-hexahydronaphthalen-1-yl 2,2-dimethylbutanoate], the time to peak (Tmax) in data set [1] was 1.9 h.
A word on the Cmax: it is the peak of the concentration-time curve. In the case of `CCCc1nn(C)c2c(=O)[nH]c(-c3cc(S(=O)(=O)N4CCN(C)CC4)ccc3OCC)nc12` [CW305, 5-[2-ethoxy-5-(4-methylpiperazine-1-sulfonyl)phenyl]-1-methyl-3-propyl-1H,4H,7H-pyrazolo[4,3-d]pyrimidin-7-one], in data set [1], the peak concentration (Cmax) is on record as 440 ng/mL, the Tmax is 1 h and the T½ is 4 to 5 h. The maximum tolerated dose in data set [2] was 8.5 mg/kg.
